≈ marks a conversion by molar mass, not a printed value.
How the values were obtained:
Assay in all cases: In vitro antifungal activity, microbroth dilution (MIC)
Type in all cases: cell-based
C. utilis 84 = details: Williopsis jadinii; C. utilis 84; 35 °C, 24 h; read-out: MIC
Protocol: (§1) The in vitro antifungal screening results of synthesized compounds was evaluated against three fungal strains: C. parapsilosis ATCC 22019, C. utilis 84, and C. glabrata 61L are summarized in Table 1.
(§2) The in vitro antifungal activity of the target compounds was measured by means of the minimal inhibitory concentrations (MIC) with fluconazole as the control drug. Procedure was carried out by the microbroth dilution method in 96-well plates according to the recommendations of the Clinical and Laboratory Standards Institute. The detailed information was reported previously. The investigated pathogenic species included C. parapsilosis ATCC 22019, C. utilis 84 and C. glabrata 61. The sensitivity was evaluated visually, after the incubation at 35 °C for 24 h and the value was compared with the growth density in the reference culture without the sample. Each test was conducted in triplicate.

C. glabrata 61L = details: Nakaseomyces glabratus; C. glabrata 61L; 35 °C, 24 h; read-out: MIC
Protocol: as §1, §2

[1] = tested on: C. parapsilosis ATCC 22019; details: Lodderomyces parapsilosis, ATCC22019; C. parapsilosis ATCC 22019; 35 °C, 24 h; read-out: MIC
Protocol: as §1, §2

- MIC (C. utilis 84): 2 µg/mL (≈ 6.53 µM)
- MIC (C. glabrata 61L): 8 µg/mL (≈ 26.1 µM)
- MIC [1]: 2 µg/mL (≈ 6.53 µM)
SMILES: OC(Cn1cncn1)(Cn1cncn1)c1ccc(F)cc1F [Fluconazole, reference compound]
